The record followed here is the supplement of paper PMC12613149.

The nature of data set [1]: reversed-phase LC retention time (C18, 15 min MeOH gradient); higher = more hydrophobic / later elution.
The nature of data set [2]: collision cross section (TIMS, N2 drift gas) of the primary ion; higher = larger gas-phase ion size.
Setting [3] is: ionization mode: ESI+, ion species: [M+H]+.
[4] abbreviates: ionization mode: ESI-, ion species: [M-H]-.

`Cc1ccc(-c2cc(C(F)(F)F)nn2-c2ccc(S(N)(=O)=O)cc2)cc1` [Celecoxib]: the results for the “reversed-phase LC retention time” value in data set [1] (setting [3]) and in data set [1] (setting [4]) were 15.1 min and 15.5 min, respectively. In addition, the collision cross section in data set [2] (setting [3]) amounted to 189.33 Å²; in data set [2] (setting [4]) it was 191.15 Å².

`O=C(O)COCCN1CCN(C(c2ccccc2)c2ccc(Cl)cc2)CC1` (stereo not given) [Cetirizine]: the “reversed-phase LC retention time” value in data set [1] (setting [3]) turned out to be 13.5 min; in data set [1] (setting [4]) it was 14.6 min. Also, the collision cross section amounted to 200.88 Å² in data set [2] (setting [3]) and 195.01 Å² in data set [2] (setting [4]).

Turning to `C[C@H](CCC(=O)O)[C@H]1CC[C@H]2[C@@H]3[C@H](O)C[C@@H]4C[C@H](O)CC[C@]4(C)[C@H]3CC[C@]12C` [Chenodeoxycholic acid], the “reversed-phase LC retention time” value in data set [1] (setting [4]) was 15.6 min. In addition, in data set [2] (setting [4]), the collision cross section was 209.87 Å².

On to `O=C(NC(CO)C(O)c1ccc([N+](=O)[O-])cc1)C(Cl)Cl` (stereo not given) [Chloramphenicol], for which the “reversed-phase LC retention time” value in data set [1] (setting [4]) was determined as 9.83 min. Besides, in data set [2] (setting [4]), the collision cross section turned out to be 165.75 Å².

Take `CNC(=O)c1cc(Cl)cc(C)c1NC(=O)c1cc(Br)nn1-c1ncccc1Cl` [Chlorantraniliprole]: the “reversed-phase LC retention time” value in data set [1] (setting [3]) is 13.5 min; in data set [1] (setting [4]), 13.8 min. The collision cross section in data set [2] (setting [3]) is on record as 199.14 Å²; in data set [2] (setting [4]), 197.51 Å².

Regarding `Cc1cc(Cl)ccc1/N=C/N(C)C` [Chlordimeform], in data set [1] (setting [3]), the “reversed-phase LC retention time” value is 8.19 min. The collision cross section in data set [2] (setting [3]) turned out to be 145.93 Å².

On to `CCOP(=O)(OCC)OC(=CCl)c1ccc(Cl)cc1Cl` [Chlorfenvinphos], for which the “reversed-phase LC retention time” value in data set [1] (setting [3]) worked out at 15.7 min. The compound also displayed a collision cross section in data set [2] (setting [3]) of 169.3 Å².

For the compound `NC(=NCCCCCCN=C(N)N=C(N)Nc1ccc(Cl)cc1)N=C(N)Nc1ccc(Cl)cc1` [Chlorohexidine], the “reversed-phase LC retention time” value in data set [1] (setting [3]) amounted to 12.4 min. In data set [2] (setting [3]), this compound displayed a collision cross section of 224.29 Å².

As to `Oc1ccc(Cl)cc1Cc1ccccc1` [Chlorophene], the “reversed-phase LC retention time” value in data set [1] (setting [4]) is 15.9 min. In data set [2] (setting [4]), the collision cross section worked out at 147.97 Å².

Regarding `N#Cc1c(O)c(Cl)c(Cl)c(C#N)c1Cl` [Chlorothalonil-4-hydroxy], the “reversed-phase LC retention time” value in data set [1] (setting [4]) was determined as 11.8 min. The collision cross section in data set [2] (setting [4]) is given as 135.03 Å².

Take `Cc1ccc(NC(=O)N(C)C)cc1Cl` [Chlorotoluron]: in data set [1] (setting [3]), the “reversed-phase LC retention time” value is 12.5 min. The same compound gave a collision cross section in data set [2] (setting [3]) of 147.58 Å².

Consider `CN(C)C(=O)Nc1ccc(Oc2ccc(Cl)cc2)cc1` [Chloroxuron], for which, in data set [1] (setting [3]), the “reversed-phase LC retention time” value is 14.6 min. This compound also registered a collision cross section in data set [2] (setting [3]) of 175 Å².

Regarding `N#Cc1cc(Cl)c(O)c(Cl)c1` [Chloroxynil], the “reversed-phase LC retention time” value in data set [1] (setting [4]) stood at 6.76 min. The compound further had a collision cross section in data set [2] (setting [4]) of 125.1 Å².

`CN(C)CCC(c1ccc(Cl)cc1)c1ccccn1` (stereo not given) [Chlorpheniramine]: in data set [1] (setting [3]), the “reversed-phase LC retention time” value is 10.8 min. This compound also came in with a collision cross section in data set [2] (setting [3]) of 164.13 Å².

Turning to `CC(C)OC(=O)Nc1cccc(Cl)c1` [Chlorpropham], in data set [1] (setting [4]), the “reversed-phase LC retention time” value amounted to 14.7 min. In data set [2] (setting [4]), this compound returned a collision cross section of 147.2 Å².

For `COc1nc(C)nc(NC(=O)NS(=O)(=O)c2ccccc2Cl)n1` [Chlorsulfuron], the “reversed-phase LC retention time” value in data set [1] (setting [3]) was found to be 12.1 min; in data set [1] (setting [4]), 9.09 min. For the same compound, the collision cross section turned out to be 177.23 Å² in data set [2] (setting [3]) and 177.5 Å² in data set [2] (setting [4]).

Regarding `C[C@H](CCC(=O)O)[C@H]1CC[C@H]2[C@@H]3[C@H](O)C[C@@H]4C[C@H](O)CC[C@]4(C)[C@H]3C[C@H](O)[C@]12C` [Cholic acid], the “reversed-phase LC retention time” value in data set [1] (setting [4]) was found to be 14.7 min. Also, in data set [2] (setting [4]), the collision cross section came to 203.99 Å².

In the case of `O=c1cc(-c2ccccc2)oc2cc(O)cc(O)c12` [Chrysin], the “reversed-phase LC retention time” value in data set [1] (setting [3]) was 14.1 min; in data set [1] (setting [4]) it was 12.8 min. Also, the collision cross section in data set [2] (setting [3]) stood at 154.65 Å²; in data set [2] (setting [4]) it was 156.4 Å².

In the case of `CN=C(NC#N)NCCSCc1nc[nH]c1C` [Cimetidine], the “reversed-phase LC retention time” value in data set [1] (setting [3]) is 6.06 min; in data set [1] (setting [4]), 8.43 min. Moreover, the collision cross section in data set [2] (setting [3]) was 158.06 Å²; in data set [2] (setting [4]), 165.63 Å².

As for `O=C(O)c1cn(C2CC2)c2cc(N3CCNCC3)c(F)cc2c1=O` [Ciprofloxacin], in data set [1] (setting [3]), the “reversed-phase LC retention time” value was 8.22 min. This compound yielded a collision cross section in data set [2] (setting [3]) of 175.82 Å².

Consider `CN(C)CCCC1(c2ccc(F)cc2)OCc2cc(C#N)ccc21` (stereo not given) [Citalopram], for which the “reversed-phase LC retention time” value in data set [1] (setting [3]) came to 11.3 min. The collision cross section in data set [2] (setting [3]) stood at 182.06 Å².

In the case of `CCC1OC(=O)C(C)C(OC2CC(C)(OC)C(O)C(C)O2)C(C)C(OC2OC(C)CC(N(C)C)C2O)C(C)(OC)CC(C)C(=O)C(C)C(O)C1(C)O` (stereo not given) [Clarithromycin], the “reversed-phase LC retention time” value in data set [1] (setting [3]) is 13.9 min. Moreover, the collision cross section in data set [2] (setting [3]) was 267.43 Å².

As to `CC(C)(C)C(=O)C(Oc1ccc(Cl)cc1)n1ccnc1` (stereo not given) [Climbazole], the “reversed-phase LC retention time” value in data set [1] (setting [3]) was 13.1 min. This compound also showed a collision cross section in data set [2] (setting [3]) of 172.6 Å².

On to `CCCC1CC(C(=O)NC(C(C)Cl)C2OC(SC)C(O)C(O)C2O)N(C)C1` (stereo not given) [Clindamycin], for which the “reversed-phase LC retention time” value is 11.5 min in data set [1] (setting [3]) and 16.1 min in data set [1] (setting [4]). Moreover, the collision cross section in data set [2] (setting [3]) stood at 203.51 Å²; in data set [2] (setting [4]) it was 200.27 Å².

Turning to `CCC(=O)O[C@]1(C(=O)CCl)[C@@H](C)C[C@H]2[C@@H]3CCC4=CC(=O)C=C[C@]4(C)[C@@]3(F)[C@@H](O)C[C@@]21C` [Clobetasol propionate], the results for the “reversed-phase LC retention time” value in data set [1] (setting [3]) and in data set [1] (setting [4]) were 15.2 min and 15.6 min, respectively. Also, the collision cross section in data set [2] (setting [3]) is recorded as 207.98 Å²; in data set [2] (setting [4]), 210.25 Å².

`C[C@H]1C[C@H]2[C@@H]3CCC4=CC(=O)C=C[C@]4(C)[C@@]3(F)[C@@H](O)C[C@]2(C)[C@@]1(O)C(=O)CCl` [Clobetasol]: the “reversed-phase LC retention time” value in data set [1] (setting [4]) stood at 14.4 min. In addition, the collision cross section in data set [2] (setting [4]) was found to be 194.82 Å².

`CC1(C)CON(Cc2ccccc2Cl)C1=O` [Clomazon]: the “reversed-phase LC retention time” value in data set [1] (setting [3]) was 13.5 min. The collision cross section in data set [2] (setting [3]) is reported as 146.86 Å².
